Measured values: patent US20070078180A1, “Methods and compositions for stabilizing an antioxidant” (priority 2005, published 2007)

Experiments:
[1] = Effect of UVB radiation on stability of CoQ10 in PBS buffer (HPLC); type: physicochemical
Procedure: (§1) HPLC Methods. To measure CoQ10 levels in tissue culture medium, an appropriate high performance liquid chromatography (“HPLC”) method had to be established.
(§2) For the instant examples, a reliable HPLC method was established for CoQ10 using an isochratic method with a mobile phase of 85% methanol and 15% hexane. CoQ10 was detected at 275 nm.
(§3) HPLC Analysis of CoQ10. The amount of CoQ10 remaining in degradation experiments below were determined by High Pressure Liquid Chromatography (HPLC). The column used was a Microsorb C18 reverse phase column (15 cm×0.46 cm), the mobile phase consisted of 85% methanol and 15% hexane at a flow rate of 1 ml/minute and CoQ10 was detected at […]. The instrument used was a HP 1090 gradient HPLC system with photodiode array detector and autosampler.
(§4) Methods and Materials. The following experiment involved examining the effect of ultraviolet radiation (“UVR”) on levels of CoQ10 in culture medium. More specifically, ultraviolet-B (“UVB,” which is ultraviolet radiation ranging from about 290 nm to about 320 nm) dose-response studies were conducted on various concentrations of CoQ10 placed in either PBS buffer or into culture media. Doses of UVB ranged from 50 mJ to 200 mJ. In the culture media, 10 μm of CoQ10 was placed in a fibroblast culture for 24 hours.

[2] = Effect of UVB radiation on stability of CoQ10 in culture with fibroblasts (HPLC); type: physicochemical; conditions: fibroblast culture, 10 μM CoQ10, 24 hours
Procedure: as §1, §2, §3, §4

MMP-1 [3] = assay: UV-induced MMP-1 in dermal fibroblasts (ELISA); type: cell-based, human; conditions: 10 micromolar, 50 mJ UV, 24 hours
Description: (§5) Methods and Materials. The following experiment involved examining the effect of CoQ10 on UVR-induced inflammatory mediators in human dermal fibroblasts. That is, because skin aging is known to be accelerated by inflammatory cytokines produced in the skin by UVR, this experiment assessed the ability of CoQ10 to inhibit the production of the inflammatory mediators produced in human dermal fibroblasts in response to either UVB radiation or to stimulation by IL-1, a pro-inflammatory cytokine produced in keratinocytes by UVR.
(§6) The dose of UV for stimulating the production in fibroblasts of each of the inflammatory mediators—PGE-2, IL-6, IL-8, and the matrix metalloproteinase (“MMP-1”)—was 50 mJ.
(§7) The cells were isolated and cultured as follows. […]
(§8) For the experiments, cells were seeded into 12 well culture dishes in complete growth medium at a density of 10^5 cells/well and allowed to attach overnight. […] Cells were incubated for 24 hours at 37° C., at which time the media was removed for assay and the cells counted. […]

IL-6 = assay: UV-induced IL-6 in dermal fibroblasts (ELISA); type: cell-based, human; conditions: 10 micromolar, 24 hours
Description: as §5, §6, §7, §8

PGE-2 [4] = assay: UV-induced PGE-2 in dermal fibroblasts (ELISA); type: cell-based, human; conditions: UVB doses of 75 mJ, 100 mJ and 125 mJ; 10 μM
Description: as §5, with “UVR. […]” for “UVR.”
The cells were isolated and cultured as follows. The dermal fibroblasts were isolated from human neonatal foreskin and cultured in Dulbecco's modified eagle media with L-glutamine and 4.5 mM glucose and without sodium pyruvate (“DMEM”) (available from Fisher Scientific, Pittsburgh, Pa.) containing 5% horse serum (available from Hyclone, Logan, Utah), 5% fetal bovine serum (available from Hyclone), and penicillin/streptomycin (100 U/100 μg/ml). Cell cultures were grown at 37° C. in a humidified CO2 incubator (5% CO2). […]
as §8

PGE-2 [5] = assay: IL-1-induced PGE-2 in dermal fibroblasts; type: cell-based, human; conditions: 24 hours
Procedure: The cells were isolated and cultured as follows. The dermal fibroblasts were isolated from human neonatal foreskin and cultured in Dulbecco's modified eagle media with L-glutamine and 4.5 mM glucose and without sodium pyruvate (“DMEM”) (available from Fisher Scientific, Pittsburgh, Pa.) containing 5% horse serum (available from Hyclone, Logan, Utah), 5% fetal bovine serum (available from Hyclone), and penicillin/streptomycin (100 U/100 μg/ml). Cell cultures were grown at 37° C. in a humidified CO2 incubator (5% CO2). Cells were passaged prior to confluence by removing cells with a trypsin/EDTA solution, followed by centrifugation and re-seeding.
as §8, with “overnight. The medium was then replaced with PBS for irradiation. A bank of two commercially available FS20 lamps were used for irradiation of cells.” for “overnight.”
The impact of CoQ10, colorless carotenoids, and a combination of both on PGE-2 in fibroblasts stimulated with IL-1 was examined. […] All of the plates were then incubated for 24 hours and then the media was removed from culture and cells counted.

MMP-1 [6] = assay: IL-1-induced MMP-1 in dermal fibroblasts (ELISA); type: cell-based, human; conditions: Example 3; CoQ10 10 μM, 24 hours
[7] = Degradation by hydroxyl radicals from the Fenton reaction (HPLC); type: physicochemical; conditions: room temperature, one hour
Procedure: as §3
Methods and Materials. The following experiment examined the effect of the hydroxyl radical on CoQ10. The hydroxyl radical is a reactive oxygen species (“ROS”) produced in the human body. The radical is generated by the reaction of iron with hydrogen peroxide (commonly called the Fenton reaction).
For this experiment, CoQ10 was prepared in a solution of chloroform/ethanol (1:1) at a concentration of 10 micrograms/ml. The Fenton reaction was then initiated by the addition of hydrogen peroxide and iron (III) chloride and allowed to proceed at room temperature for one hour, at which time samples were injected on HPLC.

[8] = Oxidation of CoQ10 by sodium hypochlorite, with or without lycopene (HPLC); type: physicochemical
Procedure: as §3
Methods and Materials. The following experiment examined the effect of sodium hypochlorite on CoQ10.
For this experiment, CoQ10 was prepared in HPLC “mobil phase” (methanol:hexane) and incubated with different concentrations of sodium hypochlorite prepared in water/methanol. The reaction was allowed to proceed for up to 30 minutes, at which time samples were injected on HPLC.
The stock lycopene was 10 mg/ml in soybean oil. It was diluted into toluene and used in the reaction at 0.1% lycopene. To allow the CoQ10, hypochlorite aqueous solution and lycopene to react, a detergent was used to bring the polar and nonpolar phases together. The incubation lasted for 30 minutes.

[9] = Oxidation of CoQ10 by 0.03% hypochlorite, with lycopene or colorless carotenoids (HPLC); type: physicochemical; conditions: Example 7, 1.5 hours
Procedure: as §3
Methods and Materials. The following experiment was a comparison of the impact that colorless carotenoids or lycopene have on CoQ10 when CoQ10 is exposed to hypochlorite oxidation.
695 μg/ml of CoQ10 was prepared in chloroform/ethanol (1:1). The calculated amounts of phytoene and phytofluene used in the study was 0.0142% and 0.0012%, respectively. The calculated amount of lycopene was 2 mg/ml in chloroform. Four plates of cells were prepared and allowed to attach overnight as described above. CoQ10 was then added to each of the plates. Further, lycopene was added to one of the plates, and the carotenoids were added to another. Three plates (one of the plates containing only CoQ10 was treated as a control) were then incubated with 0.03% hypochlorite (“HOCL”) for 1.5 hours. Then the samples were removed and assayed by HPLC to determine CoQ10 levels.

[10] = Oxidation of CoQ10 by potassium hydroxide, with or without colorless carotenoids (HPLC); type: physicochemical; conditions: 600 μM CoQ10, 1 mM KOH, 30 minutes, room temperature
Procedure: as §3
Methods and Materials. The following experiment examined whether colorless carotenoids could protect CoQ10 from potassium hydroxide oxidation.
600 μM of CoQ10 was prepared in chloroform stock. 500 μg/ml of the colorless carotenoids was prepared in DMSO. The calculated amount of potassium hydroxide (“KOH”) was 1 mM. Three plates of cells were prepared and allowed to attach overnight as described above. CoQ10 was then added to each of the plates. Further, KOH was added to two of the plates (one was maintained as a control containing only CoQ10). Further, the carotenoids were added to one of the plates containing KOH. Reactions were performed in a total volume of 1 ml. The cells containing KOH were incubated for 30 minutes at room temperature with the KOH. Then the samples were removed and assayed by HPLC to determine CoQ10 levels.

[11] = Solubility of CoQ10 in solvents compatible with cultured cells; type: physicochemical
Description: Because of the very poor solubility of CoQ10 in any solvent that is compatible with cultured cells, 10 μm of CoQ10 was the maximum final concentration that could be used in culture medium.

| SMILES | stability of CoQ10 to UVB ([1]; UVB doses 50 mJ to 200 mJ) | decrease in the concentration of CoQ10 ([1]; high UVB doses, within experimental error) | amount of CoQ10 after UVB radiation [2] | level of UVR-induced MMP1 (MMP-1 [3]) | level of IL-6 induced in UVR-treated fibroblasts (IL-6) | effect on levels of PGE-2 after UVB irradiation (PGE-2 [4]) | IL-1 induction of PGE-2 (PGE-2 [5]; Example 2, 10 micromolar, IL-1 100 picograms/ml) | inhibition at 10 µM (PGE-2 [5]; Homo sapiens, Fibroblast, Example 3, CoQ10 10 μM, colorless carotenoid 15 micrograms/ml, read-out: inhibition of the IL-1 induction of PGE-2) [%] | blocking the IL-1 induction in MMP-1 (MMP-1 [6]) | abundance or structure after the Fenton reaction ([7]; 10 micrograms/ml in chloroform/ethanol (1:1)) | loss of CoQ10 caused by sodium hypochlorite ([8]; Example 5, methanol:hexane, up to 30 minutes) [%] | loss of CoQ10 caused by hypochlorite ([9]; 695 μg/ml CoQ10, 0.03% hypochlorite) [%] | loss of CoQ10 due to oxidation by potassium hydroxide [10] [%] | solubility ([11]; any solvent compatible with cultured cells) | maximum final concentration that could be used in culture medium ([11]; culture medium) [μm] | reduction of amount by the Fenton reaction ([7]; hydrogen peroxide and iron (III) chloride) [%] | oxidation of CoQ10 by hypochlorite in the presence of the carotenoid ([8]; Example 6, 0.1% lycopene, detergent, 30 minutes) | oxidation of CoQ10 by hypochlorite in the presence of the carotenoid ([9]; 0.03% hypochlorite, lycopene 2 mg/ml, or phytoene 0.0142% and phytofluene 0.0012%) |
| --- | --- | --- | --- | --- | --- | --- | --- | --- | --- | --- | --- | --- | --- | --- | --- | --- | --- | --- |
| COC1=C(OC)C(=O)C(C/C=C(\C)CC/C=C(\C)CC/C=C(\C)CC/C=C(\C)CC/C=C(\C)CC/C=C(\C)CC/C=C(\C)CC/C=C(\C)CC/C=C(\C)CCC=C(C)C)=C(C)C1=O [CoQ10, coenzyme Q10] | exhibited stability | < 10 | generally unaffected | back to near control levels | markedly lowered | only a small inhibitory effect | significant reduction | 16 | ineffective | did not cause a reduction | 50 | 60 | 80 | very poor | 10 | – | – | – |
| CC(C)=CCC/C(C)=C/C=C/C(C)=C/C=C/C(C)=C/C=C/C=C(C)/C=C/C=C(C)/C=C/C=C(\C)CCC=C(C)C [lycopene] | – | – | – | – | – | – | – | – | – | – | – | – | – | – | – | 50 | significantly reduced | caused a reduction in oxidation |
